Measurements: ChEMBL document CHEMBL5150003, “Why All the Fury over Furin?” (J Med Chem, 2022)
Numbered stars: 1 amine (or outer) side, 2 acyl side, 3 side chain; on linkers, the order of the positions; unused ones are H or OH. Bridge positions count the residues as written; N and C are the ends. Square brackets hold non-standard residues; d marks the D form. Peptide text beside a SMILES is read from it. * marks the point of attachment. NH(4-amidinobenzyl) = N=C(N)c1ccc(CN*)cc1; 2Nal = N[C@@H](Cc1ccc2ccccc2c1)C(=O)O; Glutaryl = O=C(CCCC(=O)[*:2])[*:1]; Suc = O=C(CCC(=O)[*:2])[*:1]

Assays:
[1] = Cytotoxicity against chinese hamster CHO-DG44 cells assessed as cell viability at 100 uM and measured after 2 hrs by WST-1 method; format: toxicity, cell-based, Cricetulus griseus; conditions: read-out: Activity
[2] = tested on: RAW264.7; test: Protective activity against Anthrax toxin-induced cytotoxicity in mouse RAW264.7 cells measured by WST-1 method; format: functional; conditions: dose 100 µM
[3] = Cytotoxicity against human HT-1080 cells assessed as cell viability at 100 uM and measured after 2 hrs by WST-1 method; format: toxicity, cell-based; conditions: read-out: Activity
[4] = Protective activity against Pseudomonas aeruginosa exotoxin A-induced cytotoxicity in chinese hamster CHO-DG44 cells measured by WST-1 method; format: functional, Cricetulus griseus; conditions: dose 100 µM
[5] = target: T1, Furin (Homo sapiens, UniProt P09958); test: Inhibition of furin (unknown origin)
T1 sequence (P09958 whole entry): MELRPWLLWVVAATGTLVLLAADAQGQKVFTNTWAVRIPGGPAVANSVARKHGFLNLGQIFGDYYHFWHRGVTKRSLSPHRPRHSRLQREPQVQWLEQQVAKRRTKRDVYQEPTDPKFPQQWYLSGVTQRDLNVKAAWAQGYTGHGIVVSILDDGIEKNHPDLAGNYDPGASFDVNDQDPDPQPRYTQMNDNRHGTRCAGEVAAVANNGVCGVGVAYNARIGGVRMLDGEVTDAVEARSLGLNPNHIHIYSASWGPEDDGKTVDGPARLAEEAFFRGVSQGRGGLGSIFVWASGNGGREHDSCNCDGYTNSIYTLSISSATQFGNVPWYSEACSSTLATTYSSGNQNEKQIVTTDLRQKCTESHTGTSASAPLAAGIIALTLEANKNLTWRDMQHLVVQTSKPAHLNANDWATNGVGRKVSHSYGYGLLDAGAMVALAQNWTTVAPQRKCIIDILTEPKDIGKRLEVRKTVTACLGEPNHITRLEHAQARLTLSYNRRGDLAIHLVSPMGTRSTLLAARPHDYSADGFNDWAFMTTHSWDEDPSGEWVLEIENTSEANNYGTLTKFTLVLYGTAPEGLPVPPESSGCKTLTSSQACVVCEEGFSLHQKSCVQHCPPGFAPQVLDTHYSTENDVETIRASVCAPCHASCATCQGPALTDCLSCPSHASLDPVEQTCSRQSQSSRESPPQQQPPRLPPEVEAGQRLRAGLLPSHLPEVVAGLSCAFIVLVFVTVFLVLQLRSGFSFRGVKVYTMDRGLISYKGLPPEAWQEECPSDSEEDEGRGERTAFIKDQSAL

[6] = target: T1, Furin; test: Inhibition of furin in human U2OS cells measured after 24 hrs by fluorescence assay; format: cell-based
[7] = tested on: Mus musculus; test: Antifibrotic activity against bleomycin-induced mouse lung fibrosis model assessed as inhibition of TGF-beta secretion in lung at 10 mg/kg, po administered once daily; format: functional
[8] = tested on: Mus musculus; test: Antifibrotic activity against bleomycin-induced mouse lung fibrosis model assessed as inhibition of hydroxyproline content in lung at 10 mg/kg, po administered once daily; format: functional
[9] = Inhibition of migration of human HT-1080 cells at 100 uM measured by calcein AM/ethidium homodimer (EthD-1) staining method; format: functional
[10] = target: T1, Furin; test: Inhibition of furin (unknown origin) using Pyr-RTKR-MCA as substrate incubated for 30 mins and measured by FRET assay
[11] = target: T1, Furin; test: Inhibition of Recombinant vaccinia-expressed furin (unknown origin) using Pyr-RTKR-MCA as substrate and measured by fluorescence based assay

## N=C(N)Nc1ccc(O[C@H]2C[C@@H](Oc3ccc(NC(=N)N)c4ccccc34)[C@H](NC(=N)N)C[C@@H]2NC(=N)N)cc1
[1]
  viability at 2 h, 100 µM: > 50%
[2]
  Activity: 90%
[3]
  viability at 2 h, 100 µM: > 50%
[4]
  Activity: 60%

## N=C(N)NCCC[C@H](NC(=O)[C@@H]1CCCCNC(=O)CCC(=O)N[C@@H](Cc2ccccc2)C(=O)N[C@@H](Cc2ccc3ccccc3c2)C(=O)N[C@@H](CCCNC(=N)N)C(=O)N[C@@H](CCCNC(=N)N)C(=O)N[C@@H](CCCNC(=N)N)C(=O)N[C@@H](CCCNC(=N)N)C(=O)N1)C(=O)NCc1ccc(C(=N)N)cc1 (F[2Nal]RRRRKR-{NH(4-amidinobenzyl)}; linker N-7 via Suc)
[5]
  Ki: 0.0538 nM

## N=C(N)NCCC[C@@H]1NC(=O)[C@H](Cc2ccc3ccccc3c2)NC(=O)[C@H](Cc2ccccc2)NC(=O)CCC(=O)NCCCC[C@@H](C(=O)N[C@@H](CCCCN)C(=O)NCc2ccc(C(=N)N)cc2)NC(=O)[C@H](CCCNC(=N)N)NC(=O)[C@H](CCCNC(=N)N)NC1=O (F[2Nal]RRRKK-{NH(4-amidinobenzyl)}; linker N-6 via Suc)
[5]
  Ki: 0.618 nM

## O=C(O)CC1CCN(Cc2cc(Oc3cnc(N4CCNCC4)nc3)nc(-c3cc(Cl)cc(Cl)c3)c2)CC1
[6]
  pXC50: 7.6
[7]
  inhibition in vivo at 10 mg/kg: -11%
[8]
  inhibition in vivo at 10 mg/kg: 6%

## N=C(N)Nc1ccc(O[C@H]2C[C@@H](Oc3ccc(NC(=N)N)cc3NC(=N)N)[C@H](NC(=N)N)C[C@@H]2NC(=N)N)c(NC(=N)N)c1
[9]
  inhibition at 100 µM: 60%
[1]
  viability at 2 h, 100 µM: > 90%
[2]
  Activity: >80%
[3]
  viability at 2 h, 100 µM: > 90%
[4]
  Activity: >70%

## N=C(N)N[C@H]1C[C@@H](NC(=N)N)[C@H](Oc2ccc(C(=N)N)cn2)C[C@@H]1Oc1ccc(C(=N)N)cn1
[10]
  Ki: 20 nM

## N=C(N)c1ccc(OC2CCCC(Oc3ccc(C(=N)N)cc3)C2)cc1 (stereo unspecified)
[10]
  Ki: 1000 nM

## N=C(N)NCCC[C@@H]1NC(=O)CCCC(=O)NCCCC[C@@H](C(=O)N[C@@H](CCCCN)C(=O)NCc2ccc(C(=N)N)cc2)NC(=O)[C@H](CCCNC(=N)N)NC1=O (RRKK-{NH(4-amidinobenzyl)}; linker N-3 via Glutaryl)
[5]
  Ki: 1.05 nM

## N=C(N)Nc1ccc(OCCCOc2ccc(NC(=N)N)cc2)cc1
[9]
  inhibition at 100 µM: < 40%
[11]
  Ki: 8.3 µM
[1]
  viability at 2 h, 100 µM: 60%
[3]
  viability at 2 h, 100 µM: 60%

## N=C(N)N[C@H]1C[C@@H](NC(=N)N)[C@H](Oc2ccc(C(=N)N)cc2C(=N)N)C[C@@H]1Oc1ccc(C(=N)N)cc1C(=N)N
[10]
  Ki: 100 nM

## N=C(N)c1ccc(Oc2cccc(Oc3ccc(C(=N)N)cc3)c2)cc1
[10]
  Ki: 100 nM

## CC(=O)NCC1CCN(Cc2cc(Oc3cnc(N4CCN(CCC(C)C(=O)O)CC4)nc3)nc(-c3cc(Cl)cc(Cl)c3)c2)CC1 (stereo unspecified)
[6]
  pXC50: 8.3
[7]
  inhibition in vivo at 10 mg/kg: 75%
[8]
  inhibition in vivo at 10 mg/kg: 62%

## N=C(N)Nc1ccc(O[C@H]2C[C@@H](Oc3ccc(NC(=N)N)c4ccccc34)[C@H](NC(=N)N)C[C@@H]2NC(=N)N)c(NC(=N)N)c1
[9]
  inhibition at 100 µM: > 60%
[1]
  viability at 2 h, 100 µM: > 80%
[2]
  Activity: 50%
[3]
  viability at 2 h, 100 µM: > 80%

## N=C(N)N[C@H]1C[C@@H](NC(=N)N)[C@H](Oc2ccc(C(=N)N)cc2Cl)C[C@@H]1Oc1ccc(C(=N)N)cc1Cl
[10]
  Ki: 5 nM

## N=C(N)c1ccc(/N=N/Nc2ccc(C(=N)N)cc2)cc1 [DIMINAZENE]
[10]
  Ki: 5420 nM

## N=C(N)Nc1ccc(O[C@H]2C[C@@H](Oc3ccc(NC(=N)N)cc3)[C@H](NC(=N)N)C[C@@H]2NC(=N)N)cc1
[1]
  viability at 2 h, 100 µM: > 90%
[2]
  Activity: >90%
[3]
  viability at 2 h, 100 µM: > 90%
[4]
  Activity: >20%

## N=C(N)Nc1ccc(OCCCOc2ccc(NC(=N)N)cc2NC(=N)N)c(NC(=N)N)c1
[9]
  inhibition at 100 µM: < 40%
[11]
  Ki: 2.7 µM
[1]
  viability at 2 h, 100 µM: > 90%
[2]
  Activity: 50%
[3]
  viability at 2 h, 100 µM: > 90%
[4]
  Activity: <30%

## N=C(N)Nc1ccc(O[C@H]2C[C@@H](Oc3ccc(NC(=N)N)cn3)[C@H](NC(=N)N)C[C@@H]2NC(=N)N)nc1
[1]
  viability at 2 h, 100 µM: > 90%
[2]
  Activity: 80%
[3]
  viability at 2 h, 100 µM: > 90%
[4]
  Activity: 100%

## CC(C)(C)[C@H](NC(=O)[C@H](CCCNC(=N)N)NC(=O)Cc1ccc(CNC(=N)N)cc1)C(=O)N[C@@H](CCCNC(=N)N)C(=O)NCc1ccccc1
[5]
  IC50: 0.56 nM

## CN1CCN(c2cnc(Oc3cc(CN4CCC(CC(=O)O)CC4)cc(-c4cc(Cl)cc(Cl)c4)n3)cn2)CC1
[6]
  pXC50: 7.3
[7]
  inhibition in vivo at 10 mg/kg: 22%
[8]
  inhibition in vivo at 10 mg/kg: 4%

## CC(C)(C)[C@H](NC(=O)[C@H](CCCNC(=N)N)NC(=O)Cc1ccc(CNC(=N)N)cc1)C(=O)N[C@@H](CCCN)C(=O)NCc1ccc(C(=N)N)cc1
[5]
  Ki: 0.0088 nM
